Laboratory results taken from BindingDB's records for doi:10.1016/s0960-894x(98)00738-0 (Cubist Pharmaceuticals, 1999).

Columns and labels:
[1] = molecular target: Leucine--tRNA ligase (Escherichia coli) (UniProt P07813); assay: Compound tested for the inhibition of Escherichia coli Leucyl-tRNA synthetase
[2] = molecular target: Isoleucine--tRNA ligase (Escherichia coli) (UniProt P00956); assay: Inhibition of Escherichia coli isoleucyl-tRNA synthetase
[3] = molecular target: Alanine--tRNA ligase (Escherichia coli) (UniProt P00957); assay: Compound tested for the inhibition of Escherichia coli Alanine-tRNA synthetase
Chain of Alanine--tRNA ligase (Escherichia coli) (P00957 whole entry, looked up): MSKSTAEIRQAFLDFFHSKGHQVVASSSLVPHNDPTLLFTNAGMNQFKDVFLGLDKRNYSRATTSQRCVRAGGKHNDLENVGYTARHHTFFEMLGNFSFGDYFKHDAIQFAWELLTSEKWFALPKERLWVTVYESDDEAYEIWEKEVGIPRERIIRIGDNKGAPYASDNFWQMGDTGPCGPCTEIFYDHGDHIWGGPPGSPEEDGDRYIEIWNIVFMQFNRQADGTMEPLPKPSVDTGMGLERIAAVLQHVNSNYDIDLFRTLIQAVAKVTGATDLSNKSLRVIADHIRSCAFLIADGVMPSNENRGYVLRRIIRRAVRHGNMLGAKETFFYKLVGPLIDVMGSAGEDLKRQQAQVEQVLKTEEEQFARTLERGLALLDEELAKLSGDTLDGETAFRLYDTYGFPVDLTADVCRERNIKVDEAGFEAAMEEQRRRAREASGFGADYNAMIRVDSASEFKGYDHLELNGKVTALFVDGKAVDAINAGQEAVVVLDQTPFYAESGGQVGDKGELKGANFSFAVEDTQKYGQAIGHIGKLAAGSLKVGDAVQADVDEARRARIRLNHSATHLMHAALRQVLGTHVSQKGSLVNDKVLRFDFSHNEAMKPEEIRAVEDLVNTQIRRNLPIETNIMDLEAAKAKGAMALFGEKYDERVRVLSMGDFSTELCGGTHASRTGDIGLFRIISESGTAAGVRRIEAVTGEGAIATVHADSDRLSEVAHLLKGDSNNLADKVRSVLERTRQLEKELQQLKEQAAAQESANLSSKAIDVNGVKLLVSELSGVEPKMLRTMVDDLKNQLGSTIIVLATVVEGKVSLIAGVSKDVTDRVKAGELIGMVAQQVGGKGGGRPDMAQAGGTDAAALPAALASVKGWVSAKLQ

Chain of Isoleucine--tRNA ligase (Escherichia coli) (P00956 whole entry, looked up): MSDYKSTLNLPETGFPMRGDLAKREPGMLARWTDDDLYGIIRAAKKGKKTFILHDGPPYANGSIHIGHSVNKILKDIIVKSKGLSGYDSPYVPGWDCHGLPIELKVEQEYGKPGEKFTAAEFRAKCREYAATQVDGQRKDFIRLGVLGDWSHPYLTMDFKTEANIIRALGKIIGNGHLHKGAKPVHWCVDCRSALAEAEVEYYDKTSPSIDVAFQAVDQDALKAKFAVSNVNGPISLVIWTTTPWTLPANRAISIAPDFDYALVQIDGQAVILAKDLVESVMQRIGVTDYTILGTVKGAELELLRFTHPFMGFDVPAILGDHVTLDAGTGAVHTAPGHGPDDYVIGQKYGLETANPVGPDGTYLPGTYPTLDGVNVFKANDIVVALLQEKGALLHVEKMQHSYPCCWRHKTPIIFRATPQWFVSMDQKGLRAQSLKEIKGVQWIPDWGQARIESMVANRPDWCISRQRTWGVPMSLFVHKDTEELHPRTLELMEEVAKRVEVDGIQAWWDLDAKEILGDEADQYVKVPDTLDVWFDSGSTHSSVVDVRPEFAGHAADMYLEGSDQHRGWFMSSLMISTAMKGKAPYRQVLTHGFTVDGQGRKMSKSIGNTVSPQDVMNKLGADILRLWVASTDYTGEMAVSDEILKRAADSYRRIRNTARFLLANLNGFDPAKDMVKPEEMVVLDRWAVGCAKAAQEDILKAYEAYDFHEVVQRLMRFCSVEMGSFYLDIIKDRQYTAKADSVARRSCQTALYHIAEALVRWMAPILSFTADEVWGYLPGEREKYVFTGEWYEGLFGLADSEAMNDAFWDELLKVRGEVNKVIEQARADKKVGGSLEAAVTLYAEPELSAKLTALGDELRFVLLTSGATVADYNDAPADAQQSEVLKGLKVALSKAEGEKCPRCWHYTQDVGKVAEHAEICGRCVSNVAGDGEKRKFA
Chain of Leucine--tRNA ligase (Escherichia coli) (P07813 whole entry, looked up): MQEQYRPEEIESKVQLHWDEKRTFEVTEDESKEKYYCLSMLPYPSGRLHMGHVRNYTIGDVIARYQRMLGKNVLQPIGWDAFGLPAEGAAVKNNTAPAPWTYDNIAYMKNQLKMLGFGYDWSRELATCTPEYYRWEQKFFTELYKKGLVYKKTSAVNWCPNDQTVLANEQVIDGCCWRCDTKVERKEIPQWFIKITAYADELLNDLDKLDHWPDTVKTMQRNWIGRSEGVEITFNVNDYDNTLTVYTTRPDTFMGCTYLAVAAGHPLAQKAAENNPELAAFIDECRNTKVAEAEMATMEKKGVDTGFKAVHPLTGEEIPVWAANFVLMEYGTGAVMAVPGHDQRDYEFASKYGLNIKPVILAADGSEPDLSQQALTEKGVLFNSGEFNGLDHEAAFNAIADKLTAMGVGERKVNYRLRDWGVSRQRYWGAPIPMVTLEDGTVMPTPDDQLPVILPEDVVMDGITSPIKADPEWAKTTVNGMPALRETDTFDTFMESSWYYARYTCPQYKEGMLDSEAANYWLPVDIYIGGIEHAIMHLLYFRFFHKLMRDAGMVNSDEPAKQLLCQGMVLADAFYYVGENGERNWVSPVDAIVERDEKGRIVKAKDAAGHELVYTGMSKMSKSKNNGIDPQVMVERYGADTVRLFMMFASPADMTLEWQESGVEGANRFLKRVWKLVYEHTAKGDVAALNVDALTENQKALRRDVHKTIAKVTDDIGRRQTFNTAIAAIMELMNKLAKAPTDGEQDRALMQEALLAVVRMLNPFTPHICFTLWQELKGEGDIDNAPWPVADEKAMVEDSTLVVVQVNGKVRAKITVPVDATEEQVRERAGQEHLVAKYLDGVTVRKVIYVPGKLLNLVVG

| SMILES | IC50 [1] | IC50 [2] | IC50 [3] |
| --- | --- | --- | --- |
| CC(C)C[C@H](N)C(=O)NS(=O)(=O)OC[C@H]1O[C@@H](c2nc(CCc3ccccc3)cs2)[C@H](O)[C@@H]1O [((S)-2-Amino-4-methyl-pentanoyl)-sulfamic acid (2R,3S,4R,5R)-3,4-dihydroxy-5-(4-phenethyl-thiazol-2-yl)-tetrahydro-furan-2-ylmethyl ester] | < 2 nM |  |  |
| CCC(C)[C@H](N)C(=O)NS(=O)(=O)OC[C@H]1O[C@@H](c2nc(CCc3ccccc3)cs2)[C@H](O)[C@@H]1O (stereo partly drawn) [((S)-2-Amino-3-methyl-pentanoyl)-sulfamic acid (2R,3S,4R,5R)-3,4-dihydroxy-5-(4-phenethyl-thiazol-2-yl)-tetrahydro-furan-2-ylmethyl ester] |  | 30 nM |  |
| N[C@@H](Cc1cnc[nH]1)C(=O)NS(=O)(=O)OC[C@H]1O[C@@H](c2nc(-c3ccccc3)cs2)[C@H](O)[C@@H]1O [[(S)-2-Amino-3-(3H-imidazol-4-yl)-propionyl]-sulfamic acid (2R,3S,4R,5R)-3,4-dihydroxy-5-(4-phenyl-thiazol-2-yl)-tetrahydro-furan-2-ylmethyl ester] | > 100000 nM | > 100000 nM | > 100000 nM |
| CCC(C)[C@H](N)C(=O)NS(=O)(=O)OC[C@H]1O[C@@H](c2nc(CCc3ccc(Oc4ccccc4)cc3)cs2)[C@H](O)[C@@H]1O (stereo partly drawn) [((S)-2-Amino-3-methyl-pentanoyl)-sulfamic acid (2R,3S,4R,5R)-3,4-dihydroxy-5-{4-[2-(4-phenoxy-phenyl)-ethyl]-thiazol-2-yl}-tetrahydro-furan-2-ylmethyl ester] |  | 110 nM |  |
| CCC(C)[C@H](N)C(=O)NS(=O)(=O)OC[C@H]1O[C@@H](c2nc(-c3ccc4cc(OC)ccc4c3)cs2)[C@H](O)[C@@H]1O (stereo partly drawn) [((S)-2-Amino-3-methyl-pentanoyl)-sulfamic acid (2R,3S,4R,5R)-3,4-dihydroxy-5-[4-(6-methoxy-naphthalen-2-yl)-thiazol-2-yl]-tetrahydro-furan-2-ylmethyl ester] |  | 20 nM |  |
| CC(C)[C@H](N)C(=O)NS(=O)(=O)OC[C@H]1O[C@@H](c2nc(-c3ccccc3)cs2)[C@H](O)[C@@H]1O [((S)-2-Amino-3-methyl-butyryl)-sulfamic acid (2R,3S,4R,5R)-3,4-dihydroxy-5-(4-phenyl-thiazol-2-yl)-tetrahydro-furan-2-ylmethyl ester] | 14000 nM | 15000 nM | > 100000 nM |
| CC(C)C[C@H](N)C(=O)NS(=O)(=O)OC[C@H]1O[C@@H](c2nc(CCc3ccc(Oc4ccccc4)cc3)cs2)[C@H](O)[C@@H]1O [((S)-2-Amino-4-methyl-pentanoyl)-sulfamic acid (2R,3S,4R,5R)-3,4-dihydroxy-5-{4-[2-(4-phenoxy-phenyl)-ethyl]-thiazol-2-yl}-tetrahydro-furan-2-ylmethyl ester] | 6 nM |  |  |
| C[C@H](N)C(=O)NS(=O)(=O)OC[C@H]1O[C@@H](c2nc(-c3ccccc3)cs2)[C@H](O)[C@@H]1O [((S)-2-Amino-propionyl)-sulfamic acid (2R,3S,4R,5R)-3,4-dihydroxy-5-(4-phenyl-thiazol-2-yl)-tetrahydro-furan-2-ylmethyl ester] | > 100000 nM | 100000 nM | > 100000 nM |
| CC(C)C[C@H](N)C(=O)NS(=O)(=O)OC[C@H]1O[C@@H](c2nc(-c3ccc(Oc4ccccc4)cc3)cs2)[C@H](O)[C@@H]1O [((S)-2-Amino-4-methyl-pentanoyl)-sulfamic acid (2R,3S,4R,5R)-3,4-dihydroxy-5-[4-(4-phenoxy-phenyl)-thiazol-2-yl]-tetrahydro-furan-2-ylmethyl ester] | 1.6 nM |  |  |
| N[C@@H](Cc1ccccc1)C(=O)NS(=O)(=O)OC[C@H]1O[C@@H](c2nc(-c3ccccc3)cs2)[C@H](O)[C@@H]1O [((S)-2-Amino-3-phenyl-propionyl)-sulfamic acid (2R,3S,4R,5R)-3,4-dihydroxy-5-(4-phenyl-thiazol-2-yl)-tetrahydro-furan-2-ylmethyl ester] | > 100000 nM | > 100000 nM | > 100000 nM |

The next lines start with the values.

| IC50 [1] | IC50 [2] | IC50 [3] | SMILES |
| --- | --- | --- | --- |
|  | 15 nM |  | CCC(C)[C@H](N)C(=O)NS(=O)(=O)OC[C@H]1O[C@@H](c2nc(-c3cccc(OC)c3)cs2)[C@H](O)[C@@H]1O (stereo partly drawn) [((S)-2-Amino-3-methyl-pentanoyl)-sulfamic acid (2R,3S,4R,5R)-3,4-dihydroxy-5-[4-(3-methoxy-phenyl)-thiazol-2-yl]-tetrahydro-furan-2-ylmethyl ester] |
|  | 100 nM |  | CCC(C)[C@H](N)C(=O)NS(=O)(=O)OC[C@H]1O[C@@H](c2nc(-c3ccc(OC)cc3)cs2)[C@H](O)[C@@H]1O (stereo partly drawn) [((S)-2-Amino-3-methyl-pentanoyl)-sulfamic acid (2R,3S,4R,5R)-3,4-dihydroxy-5-[4-(4-methoxy-phenyl)-thiazol-2-yl]-tetrahydro-furan-2-ylmethyl ester] |
|  | 30 nM |  | CCC(C)[C@H](N)C(=O)NS(=O)(=O)OC[C@H]1O[C@@H](c2nc(-c3ccccc3OC)cs2)[C@H](O)[C@@H]1O (stereo partly drawn) [((S)-2-Amino-3-methyl-pentanoyl)-sulfamic acid (2R,3S,4R,5R)-3,4-dihydroxy-5-[4-(2-methoxy-phenyl)-thiazol-2-yl]-tetrahydro-furan-2-ylmethyl ester] |
|  | 100 nM | > 100000 nM | CC[C@H](C)[C@H](N)C(=O)NS(=O)(=O)OC[C@H]1O[C@@H](c2nc(-c3ccccc3)cs2)[C@H](O)[C@@H]1O [((2S,3S)-2-Amino-3-methyl-pentanoyl)-sulfamic acid (2R,3S,4R,5R)-3,4-dihydroxy-5-(4-phenyl-thiazol-2-yl)-tetrahydro-furan-2-ylmethyl ester] |
|  | 45 nM |  | CCC(C)[C@H](N)C(=O)NS(=O)(=O)OC[C@H]1O[C@@H](c2nc(-c3ccc(Oc4ccccc4)cc3)cs2)[C@H](O)[C@@H]1O (stereo partly drawn) [((S)-2-Amino-3-methyl-pentanoyl)-sulfamic acid (2R,3S,4R,5R)-3,4-dihydroxy-5-[4-(4-phenoxy-phenyl)-thiazol-2-yl]-tetrahydro-furan-2-ylmethyl ester] |
